Source: patent US12503475B2 (Centessa Pharmaceuticals (UK) Limited, priority 2020, dated 2025)

Molecular target: T1, human orexin type 2 receptor (hOX2R) (Homo sapiens, UniProt O43614)
T1 construct: expressed in transfected cells
T1 sequence (O43614 1-444): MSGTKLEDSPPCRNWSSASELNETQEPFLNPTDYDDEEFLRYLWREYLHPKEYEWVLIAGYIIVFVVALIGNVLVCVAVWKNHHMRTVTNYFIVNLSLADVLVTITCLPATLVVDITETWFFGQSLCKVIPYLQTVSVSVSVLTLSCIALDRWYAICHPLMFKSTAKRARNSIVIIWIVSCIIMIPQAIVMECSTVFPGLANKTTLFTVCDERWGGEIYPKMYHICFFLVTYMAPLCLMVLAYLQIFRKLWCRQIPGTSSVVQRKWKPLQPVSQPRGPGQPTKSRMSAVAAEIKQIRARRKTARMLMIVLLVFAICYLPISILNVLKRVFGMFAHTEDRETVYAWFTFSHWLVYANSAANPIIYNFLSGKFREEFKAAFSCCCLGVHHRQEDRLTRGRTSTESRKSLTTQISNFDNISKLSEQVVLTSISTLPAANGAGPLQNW
Assay: Measurement of orexin type 2 receptor agonist activity (FLIPR calcium fluorescence)
Format: cell-based
Conditions: CHO cells expressing hOX2R, FLIPR calcium fluorescence; for EC50: read-out: hOx2 pEC50 (converted); for Emax: CHO, read-out: hOx2 Emax (%)
Outline: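 Agonism was read as fluorescence in cells stably expressing human OX2R. E. is the response at 10 μM relative to orexin A as full agonist (100%).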

EC50	Emax	SMILES
100 to 1000 nM	50 to 60%	CC(C)C(=O)N1CC2(CC2)[C@@H](NS(C)(=O)=O)[C@H]1Cc1cccc(-c2ccccc2)c1 [Compound 16, N-((6R,7R)-6-([1,1′-biphenyl]-3-ylmethyl)-5-isobutyryl-5-azaspiro[2.4]heptan-7-yl)methanesulfonamide]
1 to 10 nM	90 to 100%	CN(CCF)C(=O)N1CC2(CC2)[C@H](NS(C)(=O)=O)[C@@H]1Cc1cccc(-c2ccccc2)c1F [Compound 82, (6S,7S)-6-((2-fluoro-[1,1′-biphenyl]-3-yl)methyl)-N-(2-fluoroethyl)-N-methyl-7-(methylsulfonamido)-5-azaspiro[2.4]heptane-5-carboxamide]
1 to 10 nM	90 to 100%	CS(=O)(=O)N[C@@H]1[C@H](Cc2cc(F)cc(-c3ccccc3)c2F)N(C(=O)[C@H](O)C2CC2)CC12CC2 [Compound 352, N-((6S,7S)-5-((R)-2-cyclopropyl-2-hydroxyacetyl)-6-((2,5-difluoro-[1,1′-biphenyl]-3-yl)methyl)-5-azaspiro[2.4]heptan-7-yl)methanesulfonamide]
0.0794 to 1 nM	90 to 100%	N#CC1(C(=O)N2CC3(CC3)[C@H](NS(=O)(=O)CF)[C@@H]2Cc2cc(F)cc(-c3ccccc3)c2F)CCC1 [Compound 413, N-((6S,7S)-5-(1-cyanocyclobutane-1-carbonyl)-6-((2,5-difluoro-[1,1′-biphenyl]-3-yl)methyl)-5-azaspiro[2.4]heptan-7-yl)-1-fluoromethanesulfonamide]
10 to 100 nM	80 to 90%	O=C([C@H]1CCO1)N1CC2(CC2)[C@H](NS(=O)(=O)C(F)(F)F)[C@@H]1Cc1cccc(-c2ccccc2)c1F [Compound 167, 1,1,1-trifluoro-N-((6S,7S)-6-((2-fluoro-[1,1′-biphenyl]-3-yl)methyl)-5-((R)-oxetane-2-carbonyl)-5-azaspiro[2.4]heptan-7-yl)methanesulfonamide]
1 to 10 nM	90 to 100%	C[C@@H](CC#N)NC(=O)N1CC2(CC2)[C@H](NS(C)(=O)=O)[C@@H]1Cc1cccc(-c2ccccc2)c1F [Compound 318, (6S,7S)-N-((S)-1-cyanopropan-2-yl)-6-((2-fluoro-[1,1′-biphenyl]-3-yl)methyl)-7-(methylsulfonamido)-5-azaspiro[2.4]heptane-5-carboxamide]
0.0794 to 1 nM	90 to 100%	C[C@H](CF)NC(=O)N1CC2(CC2)[C@H](NS(=O)(=O)CF)[C@@H]1Cc1cccc(-c2ccccc2)c1F [Compound 158]
1 to 10 nM	90 to 100%	C[C@@H](F)C(=O)N1CC2(CC2)[C@H](NS(=O)(=O)CF)[C@@H]1Cc1cc(F)cc(-c2ccccc2)c1F [Compound 418]
1 to 10 nM	90 to 100%	CC(C)(F)CNC(=O)N1CC2(CC2)[C@H](NS(=O)(=O)CF)[C@@H]1Cc1cccc(-c2ccccc2)c1F [Compound 410, (6S,7S)-N-(2-fluoro-2-methylpropyl)-6-((2-fluoro-[1,1′-biphenyl]-3-yl)methyl)-7-((fluoromethyl)sulfonamido)-5-azaspiro[2.4]heptane-5-carboxamide]
0.0794 to 1 nM	90 to 100%	O=C(NCC(F)F)N1CC2(CC2)[C@H](NS(=O)(=O)CF)[C@@H]1Cc1cccc(-c2ccccc2)c1F [Compound 187, (6S,7S)-N-(2,2-difluoroethyl)-6-((2-fluoro-[1,1′-biphenyl]-3-yl)methyl)-7-((fluoromethyl)sulfonamido)-5-azaspiro[2.4]heptane-5-carboxamide]
